What all share (type): biochemical
One experiment addresses T1, JAK1 (Homo sapiens, UniProt P23458).
T1 construct: made in house; host or cells: SF9 insect cells (baculovirus)
In words: JAK1 inhibition (Table 4). Conditions: read-out: JAK1 Ki.

A further experiment addresses T2, JAK2 (Homo sapiens, UniProt O60674).
T2 construct: made in house; host or cells: SF9 insect cells (baculovirus)
In words: JAK2 inhibition (Table 4). Conditions: read-out: JAK2 Ki.

The target of another experiment is T3, JAK3 (Homo sapiens, UniProt P52333).
T3 construct: made in house; host or cells: SF9 insect cells (baculovirus)
In words: JAK3 inhibition (Table 4). The following applies: read-out: JAK3 Ki.

A further experiment deals with T4, TYK2 (Homo sapiens, UniProt P29597).
T4 construct: made in house; host or cells: SF9 insect cells (baculovirus)
T4 sequence (P29597 873-1187): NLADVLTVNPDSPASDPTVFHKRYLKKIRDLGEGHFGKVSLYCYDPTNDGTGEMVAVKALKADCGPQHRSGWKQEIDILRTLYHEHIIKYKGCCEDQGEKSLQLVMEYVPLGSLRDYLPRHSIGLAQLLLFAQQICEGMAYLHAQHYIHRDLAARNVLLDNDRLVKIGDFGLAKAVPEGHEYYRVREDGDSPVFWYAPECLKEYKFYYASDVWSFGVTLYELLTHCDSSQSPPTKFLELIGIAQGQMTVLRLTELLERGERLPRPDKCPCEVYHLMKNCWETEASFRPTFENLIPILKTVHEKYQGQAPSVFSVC
In words: TYK2 inhibition (Table 4).

T2 sequence (O60674 812-1132): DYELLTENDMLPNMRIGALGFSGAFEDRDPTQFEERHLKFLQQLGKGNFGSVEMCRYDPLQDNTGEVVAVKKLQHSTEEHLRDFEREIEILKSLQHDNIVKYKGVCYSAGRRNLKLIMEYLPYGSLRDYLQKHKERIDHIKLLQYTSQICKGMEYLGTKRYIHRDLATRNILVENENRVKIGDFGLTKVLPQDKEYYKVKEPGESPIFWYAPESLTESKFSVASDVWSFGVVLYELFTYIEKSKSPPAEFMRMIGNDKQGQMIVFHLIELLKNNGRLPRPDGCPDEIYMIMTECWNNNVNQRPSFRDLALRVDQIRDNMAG
T1 sequence (P23458 852-1154): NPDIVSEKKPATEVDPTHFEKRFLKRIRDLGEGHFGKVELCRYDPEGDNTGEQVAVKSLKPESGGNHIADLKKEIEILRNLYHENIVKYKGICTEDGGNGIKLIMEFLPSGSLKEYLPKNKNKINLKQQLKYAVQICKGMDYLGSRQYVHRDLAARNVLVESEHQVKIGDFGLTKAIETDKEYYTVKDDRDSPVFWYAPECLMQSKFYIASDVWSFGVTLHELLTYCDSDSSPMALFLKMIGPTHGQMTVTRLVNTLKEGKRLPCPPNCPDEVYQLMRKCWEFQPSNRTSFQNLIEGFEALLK
T3 sequence (P52333 783-1124): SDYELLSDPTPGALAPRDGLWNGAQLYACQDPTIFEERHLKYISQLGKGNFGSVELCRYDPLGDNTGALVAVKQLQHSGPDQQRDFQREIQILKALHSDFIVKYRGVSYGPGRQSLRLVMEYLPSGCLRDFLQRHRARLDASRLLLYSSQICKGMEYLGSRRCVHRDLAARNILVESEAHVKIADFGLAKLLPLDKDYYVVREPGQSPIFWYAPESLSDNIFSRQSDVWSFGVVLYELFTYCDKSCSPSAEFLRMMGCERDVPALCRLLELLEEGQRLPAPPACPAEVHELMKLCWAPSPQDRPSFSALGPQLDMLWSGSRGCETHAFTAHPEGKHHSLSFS

As to `N#Cc1ccc(S(=O)(=O)N2CCC(n3cnc4cnc5[nH]ccc5c43)CC2)c(Cl)c1` [Example 446, 3-Chloro-4-[4-(6H-1,3,5,6-tetraaza-as-indacen-1-yl)-piperidine-1-sulfonyl]-benzonitrile], the Ki at JAK1 worked out at 1.14 nM; at JAK2, 2.25 nM; at JAK3 it was 189 nM; at TYK2, 10.3 nM.
On the same counts, the results for `CC1(C)CC1C(=O)N1CCC[C@@H](n2cnc3cnc4[nH]ccc4c32)C1` (stereo partly drawn) [Example 226, (2,2-Dimethyl-cyclopropyl)-[(R)-3-(6H-1,3,5,6-tetraaza-as-indacen-1-yl)-piperidin-1-yl]-methanone] are 16.2 nM, 18.1 nM, 78.5 nM and 82.1 nM.
On the same counts, the results for `O=C([C@@H]1COCCN1)N1CCC(n2cnc3cnc4[nH]ccc4c32)CC1` [Example 455, (S)-Morpholin-3-yl-[4-(6H-1,3,5,6-tetraaza-as-indacen-1-yl)-piperidin-1-yl]-methanone] are 18.5 nM, 78.5 nM, 514 nM and 262 nM.
Taken in the same sequence, the figures for `CN(C)CC(=O)NCCc1nc2cnc3[nH]ccc3c2n1C1CCCCC1` [Example 510, N-[2-(1-Cyclohexyl-1,6-dihydro-1,3,5,6-tetraaza-as-indacen-2-yl)-ethyl]-2-dimethylamino-acetamide] were 3.91 nM, 51.1 nM, 132 nM and 20.8 nM.
Turning to `C[C@@H](O)c1nc2cnc3[nH]ccc3c2n1[C@H]1CC[C@H](CC#N)CC1` [Example 644, Trans {4-[2-((R)-1-Hydroxy-ethyl)-6H-1,2,3,5,6-tetraaza-as-indacen-1-yl]-cyclohexyl}-acetonitrile], the Ki stood at 0.12 nM on JAK1, 0.81 nM on JAK2, 5.31 nM on JAK3 and 0.36 nM at TYK2.
On to `OC[C@H]1CC[C@H](n2cnc3cnc4[nH]ccc4c32)CC1` [Example 631, trans [4-(6H-1,2,3,5,6-Tetraaza-as-indacen-1-yl)-cyclohexyl]-methanol], for which the Ki on JAK1 was determined as 0.85 nM; at JAK2, 2.57 nM; at JAK3, 19.3 nM; at TYK2, 6.79 nM.
For `N#CCCN1CCC(n2c(CC3CCCC3)nc3cnc4[nH]ccc4c32)CC1` [Example 116, 3-[4-(2-Cyclopentylmethyl-6H-1,2,3,5,6-tetraaza-as-indacen-1-yl)-piperidin-1-yl]-propionitrile], the Ki was found to be 19.7 nM on JAK1, 76.9 nM at JAK2, 58 nM at JAK3 and 322 nM on TYK2.
Taken in the same sequence, the figures for `CS(=O)(=O)NCc1nc2cnc3[nH]ccc3c2n1C1CCNCC1(F)F` (racemic) [Example 945, N-[1-(3,3-Difluoro-piperidin-4-yl)-1,6-dihydro-1,3,5,6-tetraaza-as-indacen-2-ylmethyl]-methanesulfonamide] were 3.19 nM, 35 nM, 20.3 nM and 32.5 nM.
On the same counts, the results for `CCN1CCC(n2c(CCNS(C)(=O)=O)nc3cnc4[nH]ccc4c32)C(F)(F)C1` (single isomer, unassigned) [Example 805, N-{2-[1-(1-Ethyl-3,3-difluoro-piperidin-4-yl)-1,6-dihydro-1,3,5,6-tetraaza-as-indacen-2-yl]-ethyl}-methanesulfonamide] are 2.8 nM, 36 nM, 9.01 nM and 158 nM.
Taken in the same sequence, the figures for `COCCN(C)C(=O)NC1CCC(n2c(C)nc3cnc4[nH]ccc4c32)C1` (racemic) [Example 738, 1-(2-Methoxy-ethyl)-1-methyl-3-[3-(2-methyl-6H-1,3,5,6-tetraaza-as-indacen-1-yl)-cyclopentyl]-urea] were 11.6 nM, 49.1 nM, 80.9 nM and 351 nM.
Turning to `CC(C)(C)COCc1nc2cnc3[nH]ccc3c2n1C1CCN(CCC#N)CC1` [Example 683, 3-{4-[2-(2,2-Dimethyl-propoxymethyl)-6H-1,2,3,5,6-tetraaza-as-indacen-1-yl]-piperidin-1-yl}-propionitrile], the Ki is 162 nM on JAK1, 259 nM at JAK2, 308 nM on JAK3 and 1750 nM at TYK2.
Consider `O=C(CCC(F)(F)F)NC1CCC(n2cnc3cnc4[nH]ccc4c32)C1` (racemic) [Example 732, 4,4,4-Trifluoro-N-[3-(6H-1,3,5,6-tetraaza-as-indacen-1-yl)-cyclopentyl]-butyramide], for which the inhibition constant (Ki) is 2.85 nM on JAK1, 8.59 nM on JAK2, 16.2 nM on JAK3 and 64.7 nM at TYK2.
Taken in the same sequence, the figures for `Cn1ncc2c1CC[C@H](n1cnc3cnc4[nH]ccc4c31)C2` [Example 954, 1-((S)-1-Methyl-4,5,6,7-tetrahydro-1H-indazol-5-yl)-1,6-dihydro-1,3,5,6-tetraaza-as-indacene] were 39.9 nM, 97.6 nM, 344 nM and 338 nM.
Taken in the same sequence, the figures for `CCCS(=O)(=O)N1CCC(n2c(Cc3conc3C)nc3cnc4[nH]ccc4c32)CC1` [Example 381, 2-(3-Methyl-isoxazol-4-ylmethyl)-1-[1-(propane-1-sulfonyl)-piperidin-4-yl]-1,6-dihydro-1,3,5,6-tetraaza-as-indacene] were 87.1 nM, 1270 nM, 1840 nM and 1990 nM.
On the same counts, the results for `CC(C)(C#N)C(=O)N1CCC(n2cnc3cnc4[nH]ccc4c32)CC1` [Example 451, 2,2-Dimethyl-3-oxo-3-[4-(6H-1,3,5,6-tetraaza-as-indacen-1-yl)-piperidin-1-yl]-propionitrile] are 36.6 nM, 36.1 nM, 428 nM and 325 nM.
For `C[C@]1(O)CC[C@@H](n2nnc3cnc4[nH]ccc4c32)CC1` [Example 714, Cis-1-Methyl-4-(6H-1,2,3,5,6-pentaaza-as-indacen-1-yl)-cyclohexanol], the Ki at JAK1 is 5.29 nM; on JAK2, 9.89 nM; at JAK3 it was 105 nM; at TYK2 it was 28.6 nM.
Taken in the same sequence, the figures for `FC(F)(F)c1nc2cnc3[nH]ccc3c2n1C1CCNCC1` [Example 254, 1-Piperidin-4-yl-2-trifluoromethyl-1,6-dihydro-1,3,5,6-tetraaza-as-indacene] were 69.5 nM, 568 nM, 234 nM and 1500 nM.
Taken in the same sequence, the figures for `O=C(Cc1nc2cnc3[nH]ccc3c2n1C1CCCOC1)N1CCC(CO)CC1` (racemic) [Example 984, 1-(4-Hydroxymethyl-piperidin-1-yl)-2-[1-(tetrahydro-pyran-3-yl)-1,6-dihydro-1,3,5,6-tetraaza-as-indacen-2-yl]-ethanone] were 17.7 nM, 295 nM, 173 nM and 253 nM.
On the same counts, the results for `COCCNC(=O)O[C@H]1CC[C@H](n2cnc3cnc4[nH]ccc4c32)CC1` [Example 595, Trans (2-methoxy-ethyl)-carbamic acid 4-(6H-1,2,3,5,6-tetraaza-as-indacen-1-yl)-cyclohexyl ester] are 10.4 nM, 28.9 nM, 96.8 nM and 185 nM.

(Values after US8461328B2, “Tricyclic heterocyclic compounds, compositions and methods of use thereof” (Genentech, Inc., priority 2010, dated 2013).)
